Assay results taken from ChEMBL document CHEMBL1131268, “Preparation of biotinylated allosamidins with strong chitinase inhibitory activities” (Bioorg Med Chem Lett, 1998).

How the values were obtained:
Chitinase (Trichoderma) [1] = test: Compound was evaluated for inhibitory activity against Trichoderma Chitinase in presence of allosamidin at the dose of 31 ug/mL
Chitinase (Trichoderma) [2] = test: Compound was evaluated for inhibitory activity against trichoderma chitinase in presence of allosamidin at the dose of 500 ug/mL
Chitinase (Trichoderma) [3] = test: Compound was evaluated for inhibitory activity against Trichoderma Chitinase in presence of allosamidin at the dose of 125 ug/mL
Chitinase (Trichoderma) [4] = test: Compound was evaluated for inhibitory activity against Trichoderma Chitinase in presence of allosamidin at the dose of 7.8 ug/mL

inhibition (Chitinase (Trichoderma) [1]): 21.9%
inhibition (Chitinase (Trichoderma) [2]): 65.6%
inhibition (Chitinase (Trichoderma) [3]): 42.2%
inhibition (Chitinase (Trichoderma) [4]): 7.8%
SMILES: CC(=O)NC(/C=N/NC(=O)CCCCCNC(=O)CCCCC1SC[C@@H]2NC(=O)N[C@H]12)C(OC(/C=N/NC(=O)CCCCCNC(=O)CCCCC1SC[C@@H]2NC(=O)N[C@H]12)CO)OC1C(CO)OC(OC2C(O)C3N=C(N(C)C)OC3C2CO)C(NC(C)=O)C1O (some centres undefined)
